Measurements: ChEMBL document CHEMBL1151115, “Brianthein V, a New Cytotoxic and Antiviral Diterpene Isolated from Briareum asbestinum” (J Nat Prod, 1988)
Activity calls are given as the source filed them. The calls are words filed in the database; no cut-off is given here.

What was measured:
P388 [1] = experiment: Cytotoxicity against mouse P388 cells at 10 ug/ml; format: functional, cell-based
Human alphaherpesvirus 1 [2] = experiment: Antiviral activity against herpes simplex virus 1 at 80 ug/ml; format: functional, organism-based
Murine hepatitis virus [3] = experiment: Antiviral activity against mouse coronavirus at 80 ug/ml; format: functional, organism-based
Murine hepatitis virus [4] = experiment: Antiviral activity against mouse coronavirus at 400 ug/ml; format: functional, organism-based
Human alphaherpesvirus 1 [5] = experiment: Antiviral activity against herpes simplex virus 1 at 20 ug; format: functional, organism-based
P388 [6] = experiment: Cytotoxicity against mouse P388 cells at 0.1 ug; format: functional, cell-based
Murine hepatitis virus [7] = experiment: Antiviral activity against mouse coronavirus at 50 ug/ml; format: functional, organism-based
P388 [8] = experiment: Cytotoxicity against mouse P388 cells at 13 ug/ml; format: functional, cell-based
Murine hepatitis virus [9] = experiment: Antiviral activity against mouse coronavirus at 10 ug; format: functional, organism-based

In the case of C=C1/C=C\[C@H](OC(C)=O)[C@]2(C)[C@H]([C@@H](C)[C@H](OC(C)=O)[C@@H]3O[C@@H]32)[C@H](OC(C)=O)[C@]2(O)[C@@H](C)C(=O)O[C@H]2[C@H]1Cl, the Activity (P388 [1]) was “Active”, the Activity (Human alphaherpesvirus 1 [2]) was “Active” and the Activity (Murine hepatitis virus [3]) was “Active”.

With C=C1/C=C\[C@H](OC(=O)CCC)[C@]2(C)[C@H]([C@@H](C)[C@H](OC(C)=O)[C@@H]3O[C@@H]32)[C@H](OC(C)=O)[C@]2(O)[C@@H](C)C(=O)O[C@H]2[C@H]1Cl the Activity (Murine hepatitis virus [4]) was “Active”.

In the case of Nc1ncnc2c1ncn2[C@@H]1O[C@H](CO)[C@@H](O)[C@@H]1O, the Activity (Human alphaherpesvirus 1 [5]) was “Active”.

With O=c1[nH]cc(F)c(=O)[nH]1 the Activity (P388 [6]) was “Active”.

With C=C1/C=C\[C@H](OC(=O)CCC)[C@]2(C)[C@H]([C@@H](C)[C@H](OC(=O)CCC)[C@@H]3O[C@@H]32)[C@H](OC(C)=O)[C@]2(O)[C@@H](C)C(=O)O[C@H]2[C@H]1Cl the Activity (Murine hepatitis virus [7]) was “Active” and the Activity (P388 [8]) was “Active”.

In the case of NC(=O)c1ncn([C@@H]2O[C@H](CO)[C@@H](O)[C@H]2O)n1, the Activity (Murine hepatitis virus [9]) was “Active”.
